In patent US9879058B2, “Use of compounds that selectively modulate astrocytic release of substances through hemichannels of connexins and pannexins, without influencing gap junctions, for the treatment of psychiatric disorders” (Universidad Andres Bello, priority 2012, dated 2018):
Entries after “also recorded” stand apart in the source; their conditions may differ. Read-outs that look alike come from different tables or passages of the source. No end group written: not given here.

What was measured:
Cx43 gap junctions = target: T1, Cx43 gap junctions (Homo sapiens, UniProt P17302); test: Scrape-loading/dye transfer in Cx43 transfected Hela cells; type: cell-based
T1 construct: expressed in transfected cells; host or cells: HeLa
T1 sequence (P17302 whole entry): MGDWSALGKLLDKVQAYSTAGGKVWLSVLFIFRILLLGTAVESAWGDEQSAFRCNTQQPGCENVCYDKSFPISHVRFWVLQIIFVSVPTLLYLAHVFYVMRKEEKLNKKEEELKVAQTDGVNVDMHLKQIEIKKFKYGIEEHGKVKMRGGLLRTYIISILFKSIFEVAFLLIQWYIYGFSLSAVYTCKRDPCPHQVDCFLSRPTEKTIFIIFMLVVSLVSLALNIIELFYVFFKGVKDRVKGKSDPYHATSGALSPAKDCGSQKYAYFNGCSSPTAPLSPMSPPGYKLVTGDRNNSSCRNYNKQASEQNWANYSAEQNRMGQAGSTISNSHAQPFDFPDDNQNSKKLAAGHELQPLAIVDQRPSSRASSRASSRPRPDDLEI
Method: Gap junction permeability was determined at room temperature using the scrape-loading/dye transfer (SL/DT) technique, Hela cells were incubated with Carboxy-fluorescin (1 mg/ml) in the same Ca2+ free HEPES-buffered salt solution as above, then the test compound was added, followed by scrape-loading, which was performed with a razor blade. After 3 minutes the cells are washed with HEPES-buffered salt solution and mounted in Fluoromount and examined by epifluorescence.
A. Animals: All procedures involving animals were in accordance to NIH guidelines and with approval of the bioethical committee of the Universidad Andrés Bello. Sprague Dowley rats (˜60 d old, ˜250 g) were caged individually at 22° C., 12/12 h light/dark cycle. The rats remained in their home box throughout the study, and were removed only briefly for drug microinfusions. B. Drugs: For intra hippocampal microinjections Gap19 ([…] (SEQ ID NO: 3), LifeTein, South Plainfield, N.J., USA, >90% purity) was dissolved in PBS to yield a final solution of 100 μM and cacotheline was dissolved in sterile saline to a final concentration of 10 μM. For intravenous injections, cacotheline was dissolved to a final concentration of 10 μM in the blood stream, assuming circulating blood as 7% of body weight. Cacotheline was injected into the caudal vein under 4% isofluorane gas anesthesia. In a control group of rats sterile saline injection of equal volume was injected. C. Dye uptake: Gap junction permeability was determined at room temperature using the scrape-loading/dye transfer (SL/DT) technique, Hela cells were incubated with Carboxy-fluorescin (1 mg/ml) in the same Ca2+ free HEPES-buffered salt solution as above, then the test compound was added, followed byscrape-loading, which was performed with a razor blade. After 3 minutes the cells are washed with HEPES-buffered salt solution and mounted in Fluoromount and examined by epifluorescence. […]

Sprague Dowley rats [1] = test: Openfield test; type: in vivo, rat; settings: for time in the center of the openfield (thigmotaxis): cacotheline 10 μM
Method: A. Animals: All procedures involving animals were in accordance to NIH guidelines and with approval of the bioethical committee of the Universidad Andrés Bello. Sprague Dowley rats (˜60 d old, ˜250 g) were caged individually at 22° C., 12/12 h light/dark cycle. The rats remained in their home box throughout the study, and were removed only briefly for drug microinfusions. B. Drugs: For intra hippocampal microinjections Gap19 ([…] (SEQ ID NO: 3), LifeTein, South Plainfield, N.J., USA, >90% purity) was dissolved in PBS to yield a final solution of 100 μM and cacotheline was dissolved in sterile saline to a final concentration of 10 μM. For intravenous injections, cacotheline was dissolved to a final concentration of 10 μM in the blood stream, assuming circulating blood as 7% of body weight. Cacotheline was injected into the caudal vein under 4% isofluorane gas anesthesia. In a control group of rats sterile saline injection of equal volume was injected. C. Dye uptake: Gap junction permeability was determined at room temperature using the scrape-loading/dye transfer (SL/DT) technique, Hela cells were incubated with Carboxy-fluorescin (1 mg/ml) in the same Ca2+ free HEPES-buffered salt solution as above, then the test compound was added, followed byscrape-loading, which was performed with a razor blade. After 3 minutes the cells are washed with HEPES-buffered salt solution and mounted in Fluoromount and examined by epifluorescence. D. Apparatus: All behavioral essays were performed in an openfield made of Plexiglas (60 cm×40 cm) or a dark/light exploration box (70×40 cm; light compartment 40×40 cm, dark compartment 30×40 cm), illuminated by a white light bulb. A video camera was mounted at the top of the chamber to allow digital recording throughout the experiments. E. Surgery and histology: Under ketamine/xylazine anesthesia ([…], respectively), rats were stereotaxically implanted with bilateral 22-gauge stainless steel cannulas aimed 1.0 mm above the ventral hippocampus (5.0 mm posterior to Bregma, 5.0 mm lateral to the midline, and 6.0 mm ventral to the skull surface (Paxinos, G., Watson, C. (1998). The Rat Brain in Stereotaxic Coordinates; Press A, editor, San Diego). The cannulas were fixed with acrylic dental cement and secured by 4 skull screws. A stylus was placed inside the guide cannula to prevent clogging. Rats were given at least 7 days to recover before experimental procedures began.
In all experiments, stylus was removed from the guide cannula, and a 28-gauge injection cannula was inserted through the guide cannula, extending 1.0 mm beyond its tip into the ventral hippocampus. Drugs were infused slowly via the injection cannula, connected by PE20 tubing to Hamilton microsyringes driven by a microinfusion pump. Infusions were of 0.25 μl per hemisphere at a rate of 0.32 μl/min. Following drug infusion, injecting cannulaes were left in place for 10 minutes to allow drug diffusion away from the cannula tip. At the end of all experiments, animals were anesthetized as above and perfused intracardially with saline, 4% buffered paraformaldehyde. Brains were extracted and postfixed in 30% sucrose until density equaled that of sucrose. […] Animals with histological lesions beyond the size of the cannula tip and guide cannula diameter were excluded from the analysis.
F. Behavioral procedures: To assess the effects of TAT-Gap19 on locomotor activity, entire body movements were measured in the openfield and counted as the number of crossings (transitions) between virtual square subdivisions of 10 cm^2 measured offline from digital video recordings. Measures of anxiety included thigmotaxis, rearing activity in the openfield. Transitions between light and dark compartments, number of times the animal peaked from the dark compartment into the lit compartment, and time spent in the lit compartment were measured in the Dark/light box paradigm^(62, 63). G. Data Analysis: Data were expressed as Mean+SD. […]

Cx30 hemichannels = target: T2, Cx30 hemichannels (Homo sapiens, UniProt O95452); test: EthBr dye uptake in Cx30 transfected Hela cells; type: cell-based
T2 construct: expressed in transfected cells; host or cells: HeLa
T2 sequence (O95452 whole entry): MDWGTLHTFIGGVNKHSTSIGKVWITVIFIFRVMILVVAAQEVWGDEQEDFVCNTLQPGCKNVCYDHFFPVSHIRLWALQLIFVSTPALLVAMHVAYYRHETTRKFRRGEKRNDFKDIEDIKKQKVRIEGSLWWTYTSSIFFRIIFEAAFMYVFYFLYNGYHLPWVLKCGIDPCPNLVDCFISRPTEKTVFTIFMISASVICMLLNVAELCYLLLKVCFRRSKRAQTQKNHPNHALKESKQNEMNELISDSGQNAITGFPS
Method: For visualization of dye uptake by captured images, Cx30 transfected Hela cells were exposed to 25 uM EthBr (Invitrogen, Eugene, Oreg.) for 5 min at room temperature. Then, cells were incubated with either HEPES-buffered salt solution containing 140 mM NaCl, 4 mM KCl, 1 mM CaCl2, 1 mM MgCl2, 5 mM glucose, […] or in calcium free HEPES-buffered salt solution (140 mM NaCl, 4 mM KCl, 5 mM glucose, […]). Then the test compound was added to both solutions followed by EthBr dissolved to a final 25 uM concentration. Cells are washed and mounted in Fluoromount and examined by epifluorescence.

Cx30 gap junctions = test: Scrape-loading/dye transfer, Cx30 gap junctions in Hela cells; type: cell-based
Method: Gap junction permeability was determined at room temperature using the scrape-loading/dye transfer (SL/DT) technique, Hela cells were incubated with Carboxy-fluorescin (1 mg/ml) in the same Ca2+ free HEPES-buffered salt solution as above. Then the test compound was added. Scrape-loading was then performed with a razor blade. After 3 minutes the cells are washed with HEPES-buffered salt solution and mounted in Fluoromount and examined by epifluorescence.

Sprague Dowley rats [2] = test: Contextual fear conditioning after intravenous injection; type: in vivo, rat; settings: 10 minutes before training, 10 μM in the blood stream
Method: A. Animals: All procedures involving animals were in accordance to NIH guidelines. Sprague Dowley rats (˜60 d old, ˜250 g) were caged individually at 22° C., 12/12 h light/dark cycle. The rats remained in their home box throughout the study, and were removed only briefly for drug microinfusions. B. Drugs: Cacotheline (Pharmeks Ltd. Moscow, Russia) was dissolved in sterile saline to yield a final solution of 10 μM in the blood stream. As a control, only sterile saline injection of equal volume was used. Cacotheline was injected into the caudal vein under 4% isofluorane anesthesia. C. Apparatus: All behavioral essays were performed in a sound attenuating cubicle. Conditioning and testing were conducted in the same chamber. For conditioning, rats were placed in a Plexiglas chamber with a metal grid floor (40 cm×40 cm×40 cm). The chamber was dimly illuminated by a red light. A video camera was mounted at the top of each chamber to allow digital recording throughout the experiments. D. Behavioral procedures: The conditioning is based on the animal learning that a previously neutral stimulus (a conditioned stimulus, CS; e.g. a context) becomes predictive of a stressful stimulus (unconditioned stimulus, US; e.g. footshock). […] During the test, total seconds of freezing (immobility) were calculated for each rat when exposed to the conditioned context for 5 minutes without the footshock. […]

rats = test: Forced swim test (FST); type: in vivo, rat; settings: intravenous, 10 μM in the blood stream, 10 minutes before the test
Method: A. Methods: To assess depressive-like symptoms the forced swim test (FST) was employed, which was similar to that described elsewhere^(65). On training, rats were individually placed in a transparent Plexiglas cylinder (30 cm diameter×60 cm height) filled with water at 25±2° C. for 15 minutes. 24 h later, the animals were placed again in the cylinder for 5 minutes as described before. After initial vigorous swimming activity, swimming attempts normally cease and the animal adopts a characteristic immobile floating posture. Rats were scored for time to reach immobility and total immobility time by a trained observer from offline video recordings. Immobility was defined as the cessation of limb movements. B. Drugs: Cacotheline was dissolved to a final concentration of 10 μM into the blood stream, assuming circulating blood as 7% of body weight. Cacotheline was injected into the caudal vein under 4% isofluorane gas anesthesia 10 minutes before the behavioural test. In a control group of rats sterile saline injection of equal volume was injected. C. […] D. Discussion: A compound capable of increasing Cx43 hemichannel activity was able to decrease immobility in the FST, indication antidepressant effects. […] This implies that Cx43 modulators are useful to treat depression and other mood disorders.

[3] = microinjected into ventral hippocampus
[4] = microinjected into ventral hippocampus, peptides 100 μM

Molecule | Cx43 gap junctional coupling (Cx43 gap junctions) | effect on anxiety (Sprague Dowley rats [1]; [3]) | time in the center of the openfield (thigmotaxis) (Sprague Dowley rats [1]; [4]) | locomotion (transitions) in the openfield (Sprague Dowley rats [1]; [4]) | Cx30 hemichannel activity (Cx30 hemichannels) | Cx30 gap junctional communication (Cx30 gap junctions) | locomotion (transitions) in the openfield (Sprague Dowley rats [1]; microinjected into ventral hippocampus, peptides 100 μM, listed as Pnx1Li) | Cx43 gap junctional coupling (Cx43 gap junctions; listed as cacotheline) | freezing to conditioned context 24 h after training (Sprague Dowley rats [2]) | freezing to conditioned context 24 h after training (Sprague Dowley rats [2]; listed as cacotheline) | locomotion (transitions) in the openfield (Sprague Dowley rats [1]; intravenous, 10 μM in the blood stream) | time in the center of the openfield (thigmotaxis) (Sprague Dowley rats [1]; microinjected into ventral hippocampus, peptides 100 μM, listed as cacotheline) | immobility in the FST (rats)
YGRKKRRQRRRCYDHFFPVSHIR [TAT-Cx30] | had no effects on Cx43 gap junctional coupling | anxiolytic effects | increase in time at the center of the openfield | increase in locomotion at the openfield | increase in Cx30 hemichannel activity | – | – | – | – | – | – | – | –
YGRKKRRQRRRDAPALYSNLSKKRG [TAT-Cx30L4] | – | anxiolytic effects | statistically significant increase in the time the animals spent in the center | tendency to increase locomotion | increase hemichannel activity | unaffected | – | – | – | – | – | – | –
YGRKKRRQRRRRDLDLRDGP [TAT-Pnx1L5, pannexin 1 mimetic peptide] | – | anxiolytic effects | increasing significantly the time in the center of the openfield | increased locomotion at the openfield | – | – | increasing significantly | – | – | – | – | – | –
O=C(O)C[C@@H]1OCC=C2CN3CC[C@]45C6=CC(=O)C(=O)C([N+](=O)[O-])=C6N[C@H]4[C@H]1[C@H]2C[C@H]35 [Cacotheline, 2,3-Dihydro-4-nitro-2,3-dioxo-9,10-secostrychnidin-10-oic acid] | had no effects on Cx43 gap junctional coupling; also recorded: without affecting Cx43 gap junctions | anxiolytic effects | significant increase in the time spent in the center of the openfield | – | – | – | – | no effects on gap junctional coupling | increased freezing | increase freezing | increase in locomotion at the openfield; also recorded: increase in total locomotion | increase in time at the center of the openfield | significant decrease in immobility time
WRQAAFVDSY [Pnx1] | – | anxiolytic effects | increase in time at the center of the openfield; also recorded: increasing significantly the time in the center of the openfield | increasing significantly | – | – | – | – | – | – | – | – | –
